Each molecule was assayed against T1, Ser/Thr protein phosphatase 5 (PbPP5) (Plasmodium berghei, UniProt A0A509AMH5).
T1 sequence (A0A509AMH5 407-711): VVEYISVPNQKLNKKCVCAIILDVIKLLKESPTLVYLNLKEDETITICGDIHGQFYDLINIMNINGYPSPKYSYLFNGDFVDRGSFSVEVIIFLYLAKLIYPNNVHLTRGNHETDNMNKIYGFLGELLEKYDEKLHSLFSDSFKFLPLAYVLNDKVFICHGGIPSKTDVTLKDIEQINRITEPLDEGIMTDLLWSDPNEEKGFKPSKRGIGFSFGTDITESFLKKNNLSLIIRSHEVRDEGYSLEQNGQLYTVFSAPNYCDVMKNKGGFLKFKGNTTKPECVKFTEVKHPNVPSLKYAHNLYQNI
Type: biochemical

Compound | IC50 [nM]
C[C@]1(C(=O)O)[C@@H]2CC[C@@H](O2)[C@@]1(C)C(=O)O [cantharidic acid] | 122
C[C@@]12C(=O)OC(=O)[C@]1(C)[C@H]1CC[C@@H]2O1 [cantharidin] | 74.3
O=C(O)[C@@H]1[C@H](C(=O)O)[C@H]2CC[C@@H]1O2 [endothall] | 365
C=C1[C@@H](O)[C@@H]2O[C@]3(CC[C@H](/C=C/[C@@H](C)[C@@H]4CC(C)=C[C@@]5(O[C@H](C[C@@](C)(O)C(=O)O)CC[C@H]5O)O4)O3)CC[C@H]2O[C@@H]1[C@@H](O)C[C@H](C)[C@H]1O[C@@]2(CCCCO2)CC[C@H]1C [okadaic acid] | 1.3

Source: PMC8889123 (International journal for parasitology, 2019)
